How the values were obtained:
[1] = tested on: primary human smooth muscle (HASM) cells; test: FLECS bronchodilator assay: single-cell contractility of HASM cells after bradykinin/carbachol-induced contraction; type: cell-based; details: for relaxation of stimulated cells: HASM from asthmatic and non-asthmatic humans, stimulated to contract with bradykinin; for effect on contraction relative to control (FIG. 2): test agent 100 μM alone, stimulating agents BK and carbachol (10 μM), negative control 0.1% DMSO
From the text: FIGS. 1A, 1B, and 1C show the bronchodilator assay workflow with a […] of FLECS. Each well holds ˜1,200 micro-patterns for sensing force-generation by single cells. […] The two cases represent the positive and negative controls for the assay.
An in vitro model using human airway smooth muscle cells (HASM) from both asthmatic patients and “normal” non-asthmatic humans was stimulated to contract with bradykinin.
The assay investigated bronchodilatation properties of bitter taste agonists, individually and in combination, administered to primary human smooth muscle (HASM) cells after inducing contraction with asthmatic agent bradykinin. HASM cells were obtained from asthmatic patients and “normal” or non-asthmatic patients. Each of 4 primary HASM cell lines (2 from healthy donors; 2 from asthmatic donors) were seeded on FLECSplates and were stimulated to contract via exposure to bradykinin (BK) or carbachol. […] Accordingly, at 15 minutes following exposure to BK, the cells were treated with a denatonium salt or 3-CQL for Example 1, or combinations thereof, as well as positive controls and negative controls. The cells were imaged at 5 minute intervals beginning with a baseline reading, out to 45 minutes. The measurement was attenuation of population wide BK-induced contractility by treatment of a test compound (or combination) relative to controls.
Each well holds ˜1,200 micro-patterns for sensing force-generation by single cells. […] The two cases represent the positive and negative controls for the assay.

TAS2R subtypes = details: cited from earlier work

COc1ccc(CC(C)NCC(O)c2ccc(O)c(NC=O)c2)cc1 (stereo not drawn) [formoterol, Formoterol]
potency of formoterol alone (FIG. 2) ([1]; formoterol 1 μM, concentration reduced 50×): not as potent as previous experiments

CC[N+](CC)(CC(=O)Nc1c(C)cccc1C)Cc1ccccc1 [DS, denatonium saccharide]
relaxation of stimulated cells [1]: did relax

O=C(/C=C/c1ccc(O)c(O)c1)O[C@@H]1C[C@](O)(C(=O)O)C[C@@H](O)[C@H]1O [3-CQL, 3-caffeoylquinic acid]
relaxation of stimulated cells [1]: did not relax | effect on contraction relative to control (FIG. 2) [1]: increase contraction relative to control

CC[N+](CC)(CC(=O)Nc1c(C)cccc1C)Cc1ccccc1 [DB, phenylmethyl-[2-[(2,6-dimethylphenyl)amino]-2-oxoethyl]-diethylammonium benzoate]
effect on contraction relative to control (FIG. 2) [1]: relaxing effect | number of TAS2R subtypes activated (TAS2R subtypes): 8

Source: US12201593B2, “Oral pharmaceutical formulations of bitter compounds for asthma” (Aardvark Therapeutics Inc., priority 2018, dated 2025)
